Key:
[1] = biological target: T1, human enzyme NAMPT (full length) (Homo sapiens, UniProt P43490); assay: NMN fluorescence biochemical assay (stimulation of NMN synthesis by NAMPT); conditions: for EC50: NMN synthesis by purified human NAMPT (100 nM), concentration giving half-maximal activation, read-out: Enzymatic EC50; for Enzymatic Emax: fold change of maximal activation compared to DMSO
T1 construct: human enzyme NAMPT (full length)
Outline: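 Full-length human NAMPT (100 nM) was preincubated 15 min at 37 °C with compound in 50 mM Tris-HCl pH 7.5, 10 mM MgCl2, 2 mM DTT, then reacted 1 h at 37 °C with 50 μM NAM, 100 μM PRPP, 4 mM ATP (stated solution concentrations). NMN was derivatised with acetophenone/KOH then formic acid and read at Ex/Em 382/445 nm; EC50 and Emax (fold over DMSO) reported.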

[2] = test system: endogenous NAMPT in U2OS cells; assay: Cellular NAD+ modulation assay (NAD/NADH-Glo, U2OS cells); assay type: cell-based; conditions: Homo sapiens, 24 hours incubation with compound; for maximal fold induction: read-out: Cellular Emax
Procedure: Certain compounds described herein were also assayed for their ability to stimulate the endogenous NAMPT in a native cellular environment in a cellular NAD^+ modulation assay. U2OS cells were grown in McCoy's 5A medium with 10% fetal bovine serum, in a humidified incubator with an atmosphere of 95% air and 5% CO2 at 37° C. The assays were initiated by plating 30 μL of U2OS cells in a culture medium with 10% fetal bovine serum, at a density of 3000 cells per well in a Corning® 384-well White/Clear Bottom Polystyrene Microplate. The plates were incubated in 37T incubators for a period of 16 hours. Test compounds with a series of concentrations in DMSO were added to the plates in a volume of 150 nL using Echo Liquid handlers. The plates are then incubated for 24 hours. The medium was removed from the wells, then 10 μL PBS was added to each well. To each well of cells in 10 μL of PBS, 10 μL of base solution with 1% DTAB was added. The plate was briefly mixed on a plate shaker to ensure homogeneity and cell lysis (5 mins). 10p L of 0.4N HCl was added per well. The plate was coved, and all samples were incubated for 15 minutes at 60° C. Then the plate was equilibrated for 10 minutes at room temperature. 10 μL of 0.5M Trizma® base was added to each well of acid-treated cells to neutralize the acid. Finally, 30 μL of NAD/NADH-Glo™ Detection Reagent was added. The plate was gently shaken to mix the samples. The plate was incubated for 40 minutes at room temperature. Luminescence was recorded using a luminometer. The potency measurements for the test compounds were quantified and represented as EC50 (concentration of a compound that gives half-maximal activation) and Emax (fold change of a compound's maximal activation compared to DMSO).

T1 sequence (P43490 whole entry): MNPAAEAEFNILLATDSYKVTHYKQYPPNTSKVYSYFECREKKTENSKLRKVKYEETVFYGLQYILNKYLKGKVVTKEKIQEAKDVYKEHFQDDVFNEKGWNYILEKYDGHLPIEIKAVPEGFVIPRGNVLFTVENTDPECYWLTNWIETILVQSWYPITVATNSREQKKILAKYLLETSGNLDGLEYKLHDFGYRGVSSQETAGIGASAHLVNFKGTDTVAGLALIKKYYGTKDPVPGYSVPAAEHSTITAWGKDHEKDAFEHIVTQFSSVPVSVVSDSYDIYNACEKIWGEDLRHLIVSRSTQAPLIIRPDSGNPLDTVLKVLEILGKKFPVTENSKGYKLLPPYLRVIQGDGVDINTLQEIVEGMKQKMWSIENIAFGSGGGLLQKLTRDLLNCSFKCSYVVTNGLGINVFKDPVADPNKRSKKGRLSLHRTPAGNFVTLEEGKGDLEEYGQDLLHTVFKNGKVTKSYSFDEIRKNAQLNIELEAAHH

Row | Compound | EC50 [1] [µM] | Enzymatic Emax [1] | EC50 [2] [µM] | maximal fold induction [2]
1 | O=c1[nH]c2ccc(Cn3ccc4ccccc4c3=O)cc2o1 [Compound 4, 6-((1-oxoisoquinolin-2(1H)-yl)methyl)benzo[d]oxazol-2(3H)-one] | ≥ 5 | B (3≥B>2) | 5 to 50 | 1.2 to 1.5
2 | O=c1c2ccccc2ccn1Cc1ccc2[nH]nnc2c1 [Compound 7, 2-((1H-benzo[d][1,2,3]triazol-5-yl)methyl)isoquinolin-1(2H)-one] | ≥ 5 | B (3≥B>2) | 5 to 50 | 1.2 to 1.5
3 | O=c1[nH]c2ccc(CN3Cc4ccccc4S3(=O)=O)cc2o1 [Compound 9, 6-((1,1-dioxidobenzo[d]isothiazol-2(3H)-yl)methyl)benzo[d]oxazol-2(3H)-one] | 0.5 to 5 | B (3≥B>2) | 0.5 to 5 | > 1.5
4 | O=C1c2cc(Br)ccc2CN1Cc1ccc(O)cc1 [Compound 19, 6-bromo-2-(4-hydroxybenzyl) isoindolin-1-one] | ≥ 5 | A (A>3) | 0.5 to 5 | 1.2 to 1.5
5 | O=C1c2cccc(Br)c2CN1Cc1ccc(O)cc1 [Compound 21, 4-bromo-2-(4-hydroxybenzyl) isoindolin-1-one] | 0.5 to 5 | B (3≥B>2) | 5 to 50 | 1.2 to 1.5
6 | O=C1c2c(Br)cccc2CN1Cc1ccc(O)cc1 [Compound 29, 7-bromo-2-(4-hydroxybenzyl)isoindolin-1-one] | 0.5 to 5 | A (A>3) | 5 to 50 | > 1.5
7 | O=C1c2ccccc2CN1Cc1ccc2[nH]c(=O)oc2c1 [Compound 33, 6-((1-oxoisoindolin-2-yl)methyl)benzo[d]oxazol-2(3H)-one] | ≥ 5 | A (A>3) | 5 to 50 | 1.2 to 1.5
8 | Cc1cccc2c1CN(Cc1ccc(O)cc1)C2=O [Compound 34, 2-(4-hydroxybenzyl)-4-methylisoindolin-1-one] | 0.5 to 5 | B (3≥B>2) | 0.5 to 5 | 1.2 to 1.5
9 | O=C1c2cccnc2CN1Cc1ccc(O)cc1 [Compound 39, 6-(4-hydroxybenzyl)-6,7-dihydro-5H-pyrrolo[3,4-b]pyridin-5-one] | ≥ 5 | B (3≥B>2) | 5 to 50 | 1.2 to 1.5
10 | O=C1c2ncccc2CN1Cc1ccc(O)cc1 [Compound 40, 6-(4-hydroxybenzyl)-5,6-dihydro-7H-pyrrolo[3,4-b]pyridin-7-one] | ≥ 5 | B (3≥B>2) | 5 to 50 | 1.2 to 1.5
11 | O=C1c2cnccc2CN1Cc1ccc(O)cc1 [Compound 42, 2-(4-hydroxybenzyl)-1,2-dihydro-3H-pyrrolo[3,4-c]pyridin-3-one] | ≥ 5 | A (A>3) | 5 to 50 | > 1.5
12 | O=C1c2ccncc2CN1Cc1ccc(O)cc1 [Compound 43, 2-(4-hydroxybenzyl)-2,3-dihydro-1H-pyrrolo[3,4-c]pyridin-1-one] | ≥ 5 | A (A>3) | 5 to 50 | 1.2 to 1.5
13 | CC1c2ccccc2C(=O)N1Cc1ccc2[nH]nnc2c1 (stereo not shown) [Compound 44, 2-((1H-benzo[d][1,2,3]triazol-5-yl)methyl)-3-methylisoindolin-1-one] | ≥ 5 | B (3≥B>2) | 5 to 50 | 1.2 to 1.5
14 | CC(c1ccc(O)cc1)N1Cc2ccccc2C1=O (stereo not shown) [Compound 45, 2-(1-(4-hydroxyphenyl)ethyl) isoindolin-1-one] | ≥ 5 | B (3≥B>2) | 0.5 to 5 | 1.2 to 1.5

Now from value to molecule, other results behind:

Row | EC50 [1] [µM] | Enzymatic Emax [1] | EC50 [2] [µM] | Compound | maximal fold induction [2]
15 | ≥ 5 | A (A>3) | 0.5 to 5 | O=c1ccc2ccccc2n1Cc1ccc(O)cc1 [Compound 5, 1-(4-hydroxybenzyl)quinolin-2(1H)-one] | 1.2 to 1.5
16 | ≥ 5 | B (3≥B>2) | 5 to 50 | O=C1c2ccccc2C(=O)N1Cc1ccc(O)cc1 [Compound 11, 2-(4-hydroxybenzyl)isoindoline-1,3-dione] | 1.2 to 1.5
17 | ≥ 5 | B (3≥B>2) | 5 to 50 | O=C1c2ccccc2CN1Cc1ccc(O)cc1 [Compound 12, 2-(4-hydroxybenzyl)isoindolin-1-one] | 1.2 to 1.5
18 | 0.5 to 5 | B (3≥B>2) | 0.5 to 5 | Cc1ccc2c(c1)C(=O)N(Cc1ccc(O)cc1)C2=O [Compound 14, 2-(4-hydroxybenzyl)-5-methylisoindoline-1,3-dione] | 1.2 to 1.5
19 | 0.5 to 5 | B (3≥B>2) | < 0.5 | O=C1c2ccc(Nc3ccccc3)cc2C(=O)N1Cc1ccc(O)cc1 [Compound 15, 2-(4-hydroxybenzyl)-5-(phenylamino)isoindoline-1,3-dione] | ≤ 1.2
20 | ≥ 5 | A (A>3) | 0.5 to 5 | O=C1c2ccc(Br)cc2C(=O)N1Cc1ccc(O)cc1 [Compound 16, 5-bromo-2-(4-hydroxybenzyl)isoindoline-1,3-dione] | ≤ 1.2
21 | 0.5 to 5 | A (A>3) | 0.5 to 5 | O=C1c2ccc(Br)cc2CN1Cc1ccc(O)cc1 [Compound 20, 5-bromo-2-(4-hydroxybenzyl) isoindolin-1-one] | > 1.5
22 | ≥ 5 | A (A>3) | 0.5 to 5 | Cn1c2ccccc2c(=O)n1Cc1ccc(O)cc1 [Compound 23, 2-(4-hydroxybenzyl)-1-methyl-1,2-dihydro-3H-indazol-3-one] | > 1.5
23 | ≥ 5 | A (A>3) | 5 to 50 | CCCn1c2ccccc2c(=O)n1Cc1ccc(O)cc1 [Compound 25, 2-(4-hydroxybenzyl)-1-propyl-1,2-dihydro-3H-indazol-3-one] | > 1.5
24 | 0.5 to 5 | A (A>3) | < 0.5 | CC(C)c1ccc2c(c1)C(=O)N(Cc1ccc(O)cc1)C2=O [Compound 26, 2-(4-hydroxybenzyl)-5-isopropylisoindoline-1,3-dione] | ≤ 1.2
25 | ≥ 5 | A (A>3) | 5 to 50 | N#CCC1c2ccccc2C(=O)N1Cc1ccc(O)cc1 (stereo not shown) [Compound 27, 2-(2-(4-hydroxybenzyl)-3-oxoisoindolin-1-yl)acetonitrile] | > 1.5
26 | 0.5 to 5 | A (A>3) | 0.5 to 5 | CC1c2ccccc2C(=O)N1Cc1ccc(O)cc1 (stereo not shown) [Compound 31, 2-(4-hydroxybenzyl)-3-methylisoindolin-1-one] | > 1.5
27 | 0.5 to 5 | A (A>3) | 0.5 to 5 | COc1ccc2c(c1)CN(Cc1ccc(O)cc1)C2=O [Compound 35, 2-(4-hydroxybenzyl)-5-methoxyisoindolin-1-one] | 1.2 to 1.5
28 | 0.5 to 5 | A (A>3) | 0.5 to 5 | O=C1c2ccc(N3CCCC3)cc2C(=O)N1Cc1ccc(O)cc1 [Compound 36, 2-(4-hydroxybenzyl)-5-(pyrrolidin-1-yl)isoindoline-1,3-dione] | 1.2 to 1.5
29 | ≥ 5 | A (A>3) | 0.5 to 5 | Cc1ccc2c(c1)C(=O)N(Cc1ccc3[nH]nnc3c1)C2=O [Compound 37, 2-((1H-benzo[d][1,2,3]triazol-5-yl)methyl)-5-methylisoindoline-1,3-dione] | ≤ 1.2
30 | ≥ 5 | A (A>3) | 5 to 50 | NC(=O)c1ccc2c(c1)C(=O)N(Cc1ccc(O)cc1)C2=O [Compound 38, 2-(4-hydroxybenzyl)-1,3-dioxoisoindoline-5-carboxamide] | ≤ 1.2
31 | 0.5 to 5 | A (A>3) | 0.5 to 5 | CCc1ccc2c(c1)C(=O)N(Cc1ccc(O)cc1)C2=O [Compound 41, 5-ethyl-2-(4-hydroxybenzyl)isoindoline-1,3-dione] | 1.2 to 1.5
